What was measured:
Assay in all cases: cells
KYSE-510 = type: functional, cell-based, Homo sapiens; conditions: Homo sapiens, KYSE-510;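 further: cell viability readout used to measure how strongly growth of the cell line is suppressed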
Description: SANGER: Inhibition of human KYSE-510 cell growth in a cell viability assay.

SN12C = type: functional, cell-based, Homo sapiens; conditions: Homo sapiens, SN12C;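 further: growth inhibition of human SN12C cells, measured by a cell viability assay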
Description: SANGER: Inhibition of human SN12C cell growth in a cell viability assay.

SF-295 = type: functional, cell-based, Homo sapiens; conditions: Homo sapiens, SF-295;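 further: growth inhibition of SF-295 cells, read out with a cell viability assay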
Description: SANGER: Inhibition of human SF295 cell growth in a cell viability assay.

OVCAR-5 = type: functional, cell-based, Homo sapiens; conditions: Homo sapiens, OVCAR-5;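 further: growth inhibition of human OVCAR-5 cells, read out with a cell viability assay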
Description: SANGER: Inhibition of human OVCAR-5 cell growth in a cell viability assay.

HT-1376 = type: functional, cell-based, Homo sapiens; conditions: Homo sapiens, HT-1376
Description: SANGER: Inhibition of human HT-1376 cell growth in a cell viability assay.

PF-382 = type: functional, cell-based, Homo sapiens; conditions: Homo sapiens, PF-382
Description: SANGER: Inhibition of human PF-382 cell growth in a cell viability assay.

RCM-1 = type: functional, cell-based, Homo sapiens; conditions: Homo sapiens, RCM-1;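 further: growth inhibition of the RCM-1 line, determined with a cell viability readout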
Description: SANGER: Inhibition of human RCM-1 cell growth in a cell viability assay.

CP50-MEL-B = type: functional, cell-based, Homo sapiens; conditions: Homo sapiens, CP50-MEL-B;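 further: growth inhibition of the human cell line, measured with a cell viability read-out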
Description: SANGER: Inhibition of human CP50-MEL-B cell growth in a cell viability assay.

HOP-92 = type: functional, cell-based, Homo sapiens; conditions: Homo sapiens, HOP-92;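 further: cell viability readout, with IC50 reflecting inhibition of HOP-92 cell growth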
Description: SANGER: Inhibition of human HOP-92 cell growth in a cell viability assay.

AN3-CA = type: functional, cell-based, Homo sapiens; conditions: Homo sapiens, AN3-CA;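 further: growth inhibition of human AN3-CA cells measured by a cell viability assay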
Description: SANGER: Inhibition of human AN3-CA cell growth in a cell viability assay.

DU-145 = type: functional, cell-based, Homo sapiens; conditions: Homo sapiens, DU-145
Description: SANGER: Inhibition of human DU-145 cell growth in a cell viability assay.

HuCCT-1 = type: functional, cell-based, Homo sapiens, HuCCT1; conditions: Homo sapiens, HuCCT-1;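 further: growth inhibition of HuCCT-1 cells, read out by a cell viability assay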
Description: SANGER: Inhibition of human HuCCT1 cell growth in a cell viability assay.

C-33-A = type: functional, cell-based, Homo sapiens; conditions: Homo sapiens, C-33-A;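 further: cell viability assay measuring growth inhibition of C-33-A cells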
Description: SANGER: Inhibition of human C-33-A cell growth in a cell viability assay.

Calu-3 = type: functional, cell-based, Homo sapiens; conditions: Homo sapiens, Calu-3;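 further: growth inhibition of human Calu-3 cells, determined with a cell viability assay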
Description: SANGER: Inhibition of human Calu-3 cell growth in a cell viability assay.

NCI-H2171 = type: functional, cell-based, Homo sapiens; conditions: Homo sapiens, NCI-H2171;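 further: growth inhibition of human NCI-H2171 cells, read out by a cell viability assay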
Description: SANGER: Inhibition of human NCI-H2171 cell growth in a cell viability assay.

KYSE-150 cell line = type: functional, cell-based, Homo sapiens; conditions: Homo sapiens, KYSE-150;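 further: growth inhibition of human KYSE-150 cells, read out with a cell viability assay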
Description: SANGER: Inhibition of human KYSE-150 cell growth in a cell viability assay.

Panc1005 = type: functional, cell-based, Homo sapiens; conditions: Homo sapiens, Panc1005;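 further: growth inhibition of human PANC-10-05 cells, measured by a cell viability assay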
Description: SANGER: Inhibition of human PANC-10-05 cell growth in a cell viability assay.

NCI-H1755 = type: functional, cell-based, Homo sapiens; conditions: Homo sapiens, NCI-H1755;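 further: cell viability readout used to measure growth inhibition of NCI-H1755 cells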
Description: SANGER: Inhibition of human NCI-H1755 cell growth in a cell viability assay.

SK-MEL3 = type: functional, cell-based, Homo sapiens, SK-MEL-3; conditions: Homo sapiens, SK-MEL3;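 further: growth inhibition of human SK-MEL-3 cells, read out with a cell viability assay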
Description: SANGER: Inhibition of human SK-MEL-3 cell growth in a cell viability assay.

NCI-H727 = type: functional, cell-based, Homo sapiens; conditions: Homo sapiens, NCI-H727;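 further: growth inhibition of human NCI-H727 cells, read out with a cell viability assay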
Description: SANGER: Inhibition of human NCI-H727 cell growth in a cell viability assay.

SCC-9 = type: functional, cell-based, Homo sapiens; conditions: Homo sapiens, SCC-9;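 further: Read-out is a cell viability assay, with values giving inhibition of cell growth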
Description: SANGER: Inhibition of human SCC-9 cell growth in a cell viability assay.

SK-HEP1 = type: functional, cell-based, Homo sapiens, SK-HEP-1; conditions: Homo sapiens, SK-HEP1;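 further: cell viability readout used to quantify reduction in proliferation of human SK-HEP-1 cells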
Description: SANGER: Inhibition of human SK-HEP-1 cell growth in a cell viability assay.

HT1197 = type: functional, cell-based, Homo sapiens, HT-1197; conditions: Homo sapiens, HT1197
Description: SANGER: Inhibition of human HT-1197 cell growth in a cell viability assay.

PC-14 = type: functional, cell-based, Homo sapiens; conditions: Homo sapiens, PC-14;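 further: cell viability assay measuring inhibition of PC-14 cell growth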
Description: SANGER: Inhibition of human PC-14 cell growth in a cell viability assay.

HuP-T3 = type: functional, cell-based, Homo sapiens; conditions: Homo sapiens, HuP-T3;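 further: HuP-T3 cell growth inhibition, read out with a cell viability assay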
Description: SANGER: Inhibition of human HuP-T3 cell growth in a cell viability assay.

CAL-27 = type: functional, cell-based, Homo sapiens; conditions: Homo sapiens, CAL-27;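 further: Viability-based readout, IC50 reflecting inhibition of CAL-27 cell growth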
Description: SANGER: Inhibition of human CAL-27 cell growth in a cell viability assay.

HSC-3 = type: functional, cell-based, Homo sapiens; conditions: Homo sapiens, HSC-3
Description: SANGER: Inhibition of human HSC-3 cell growth in a cell viability assay.

NCI-H2052 = type: functional, cell-based, Homo sapiens; conditions: Homo sapiens, NCI-H2052;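 further: growth inhibition of NCI-H2052 cells, read out with a cell viability assay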
Description: SANGER: Inhibition of human NCI-H2052 cell growth in a cell viability assay.

A2058 = type: functional, cell-based, Homo sapiens; conditions: Homo sapiens, A2058;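 further: reduction of A2058 cell growth, read out with a viability assay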
Description: SANGER: Inhibition of human A2058 cell growth in a cell viability assay.

ACHN = type: functional, cell-based, Homo sapiens; conditions: Homo sapiens, ACHN;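 further: cell viability read-out used to gauge how strongly growth of human ACHN cells is suppressed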
Description: SANGER: Inhibition of human ACHN cell growth in a cell viability assay.

BFTC-909 = type: functional, cell-based, Homo sapiens; conditions: Homo sapiens, BFTC-909
Description: SANGER: Inhibition of human BFTC-909 cell growth in a cell viability assay.

ASPC1 = type: functional, cell-based, Homo sapiens; conditions: Homo sapiens, ASPC1;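 further: growth inhibition of AsPC-1 cells, read out with a cell viability assay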
Description: SANGER: Inhibition of human AsPC-1 cell growth in a cell viability assay.

TE-441-T = type: functional, cell-based, Homo sapiens; conditions: Homo sapiens, TE-441-T
Description: SANGER: Inhibition of human TE-441-T cell growth in a cell viability assay.

HCC1569 = type: functional, cell-based, Homo sapiens; conditions: Homo sapiens, HCC1569;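 further: growth inhibition of human HCC1569 cells, read out with a cell viability assay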
Description: SANGER: Inhibition of human HCC1569 cell growth in a cell viability assay.

SK-MEL-24 = type: functional, cell-based, Homo sapiens; conditions: Homo sapiens, SK-MEL-24;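 further: growth inhibition read out by a cell viability assay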
Description: SANGER: Inhibition of human SK-MEL-24 cell growth in a cell viability assay.

MDA-MB-361 = type: functional, cell-based, Homo sapiens; conditions: Homo sapiens, MDA-MB-361
P12-Ichikawa = type: functional, cell-based, Homo sapiens; conditions: Homo sapiens, P12-Ichikawa
CAL-85-1 = type: functional, cell-based, Homo sapiens; conditions: Homo sapiens, CAL-85-1;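 further: growth inhibition of human CAL-85-1 cells, read out with a cell viability assay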
Description: SANGER: Inhibition of human CAL-85-1 cell growth in a cell viability assay.

NCI-H1563 = type: functional, cell-based, Homo sapiens; conditions: Homo sapiens, NCI-H1563;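 further: growth inhibition of human NCI-H1563 cells, read out with a cell viability assay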
Description: SANGER: Inhibition of human NCI-H1563 cell growth in a cell viability assay.

BFTC-905 = type: functional, cell-based, Homo sapiens; conditions: Homo sapiens, BFTC-905
Description: SANGER: Inhibition of human BFTC-905 cell growth in a cell viability assay.

LCLC-97TM1 = type: functional, cell-based, Homo sapiens; conditions: Homo sapiens, LCLC-97TM1;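 further: cell viability assay measuring growth inhibition of human LCLC-97TM1 cells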
Description: SANGER: Inhibition of human LCLC-97TM1 cell growth in a cell viability assay.

EB2 = type: functional, cell-based, Homo sapiens; conditions: Homo sapiens, EB2;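 further: growth inhibition of EB2 cells, read out with a cell viability assay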
Description: SANGER: Inhibition of human EB2 cell growth in a cell viability assay.

NCI-H810 = type: functional, cell-based, Homo sapiens; conditions: Homo sapiens, NCI-H810;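 further: IC50 reflects inhibition of cancer cell line growth, read out with a cell viability assay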
Description: SANGER: Inhibition of human NCI-H810 cell growth in a cell viability assay.

JEG-3 = type: functional, cell-based, Homo sapiens; conditions: Homo sapiens, JEG-3;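 further: growth inhibition of human JEG-3 cells, read out with a cell viability assay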
Description: SANGER: Inhibition of human JEG-3 cell growth in a cell viability assay.

For Nc1ccn([C@@H]2O[C@H](CO)[C@@H](O)C2(F)F)c(=O)n1 [GEMCITABINE], the IC50 (KYSE-510) was < 4 nM, the IC50 (SN12C) was 497 nM and the IC50 (SF-295) was 51.1 nM. The IC50 (OVCAR-5) was 306 nM, the IC50 (HT-1376) was 369 nM and the IC50 (PF-382) was 44.2 nM. The IC50 (RCM-1) was 665 nM, the IC50 (CP50-MEL-B) was > 1020 nM and the IC50 (HOP-92) was 951 nM. It also gave an IC50 (AN3-CA) of 203 nM, an IC50 (DU-145) of 9.29 nM and an IC50 (HuCCT-1) of 20.6 nM. For the same compound, the IC50 (C-33-A) was < 4 nM, the IC50 (Calu-3) was 17.3 nM and the IC50 (NCI-H2171) was > 1020 nM. It also gave an IC50 (KYSE-150 cell line) of 8.47 nM, an IC50 (Panc1005) of 15.4 nM and an IC50 (NCI-H1755) of 718 nM. For the same compound, the IC50 (SK-MEL3) was 105 nM, the IC50 (NCI-H727) was 2.51 nM and the IC50 (SCC-9) was > 1020 nM. The IC50 (SK-HEP1) was 6.14 nM, the IC50 (HT1197) was > 1020 nM and the IC50 (PC-14) was 203 nM. For the same compound, the IC50 (HuP-T3) was 146 nM, the IC50 (CAL-27) was 35.2 nM and the IC50 (HSC-3) was 1.91 nM. For the same compound, the IC50 (NCI-H2052) was 145 nM, the IC50 (A2058) was 32.8 nM and the IC50 (ACHN) was < 4 nM. For the same compound, the IC50 (BFTC-909) was 146 nM, the IC50 (ASPC1) was > 1020 nM and the IC50 (TE-441-T) was > 1020 nM. For the same compound, the IC50 (HCC1569) was 109 nM, the IC50 (SK-MEL-24) was > 1020 nM and the IC50 (MDA-MB-361) was 461 nM. The IC50 (P12-Ichikawa) was 84.7 nM, the IC50 (CAL-85-1) was 145 nM and the IC50 (NCI-H1563) was > 1020 nM. For the same compound, the IC50 (BFTC-905) was < 4 nM, the IC50 (LCLC-97TM1) was < 4 nM and the IC50 (EB2) was 2.01 nM. The IC50 (NCI-H810) was 8.56 nM and the IC50 (JEG-3) was 277 nM.
O=C(O)c1ccc(-c2c[nH]c3ncc(-c4ccccc4)cc23)cc1C1CCCC1 [GSK-650394] was tested, and the IC50 (KYSE-510) was 2130 nM, the IC50 (SN12C) was > 16000 nM and the IC50 (SF-295) was 7600 nM. For the same compound, the IC50 (OVCAR-5) was > 16000 nM, the IC50 (HT-1376) was > 16000 nM and the IC50 (PF-382) was > 16000 nM. For the same compound, the IC50 (RCM-1) was > 16000 nM, the IC50 (CP50-MEL-B) was > 16000 nM and the IC50 (HOP-92) was > 16000 nM. For the same compound, the IC50 (AN3-CA) was 7660 nM, the IC50 (DU-145) was > 16000 nM and the IC50 (HuCCT-1) was > 16000 nM. The IC50 (C-33-A) was 8530 nM, the IC50 (Calu-3) was 10700 nM and the IC50 (NCI-H2171) was > 16000 nM. For the same compound, the IC50 (KYSE-150 cell line) was 10400 nM, the IC50 (Panc1005) was 11400 nM and the IC50 (NCI-H1755) was > 16000 nM. For the same compound, the IC50 (SK-MEL3) was > 16000 nM, the IC50 (NCI-H727) was > 16000 nM and the IC50 (SCC-9) was > 16000 nM. For the same compound, the IC50 (SK-HEP1) was 6340 nM, the IC50 (HT1197) was > 16000 nM and the IC50 (PC-14) was > 16000 nM. The IC50 (HuP-T3) was > 16000 nM, the IC50 (CAL-27) was 5330 nM and the IC50 (HSC-3) was > 16000 nM. The IC50 (NCI-H2052) was > 16000 nM, the IC50 (A2058) was 13500 nM and the IC50 (ACHN) was 10800 nM. The IC50 (BFTC-909) was 14600 nM, the IC50 (ASPC1) was > 16000 nM and the IC50 (TE-441-T) was > 16000 nM. The IC50 (HCC1569) was > 16000 nM, the IC50 (SK-MEL-24) was > 16000 nM and the IC50 (MDA-MB-361) was > 16000 nM. The IC50 (P12-Ichikawa) was > 16000 nM, the IC50 (CAL-85-1) was > 16000 nM and the IC50 (NCI-H1563) was > 16000 nM. For the same compound, the IC50 (BFTC-905) was 785 nM, the IC50 (LCLC-97TM1) was 1370 nM and the IC50 (EB2) was > 16000 nM. For the same compound, the IC50 (NCI-H810) was > 16000 nM and the IC50 (JEG-3) was > 16000 nM.

Source: ChEMBL document CHEMBL1201861, “Genomics of Drug Sensitity in Cancer screening data, Wellcome Trust Sanger Institute”
